Laboratory results as given in patent US6087375A, “Methods of treating or preventing thromboses” (priority 1999, dated 2000).

Tested on: human platelets (thrombin-induced aggregation)
Test: Thrombin-induced platelet aggregation assay
Format: cell-based
Procedure: The conjugate was prepared according to the following protocol. A 15 μM solution of RSA in PBS was reacted with 200 μM argatroban-C6 NHS ester for 1 hour at room temperature. Sham samples consist of the RSA incubated for the same length of time at RT in 2% DMSO in PBS. Each of the samples was then concentrated to a final volume of 1.5 mL using Amicon Centricon 30 filtration/concentration devices. The concentrated samples were then desalted on Pierce's 5 ML Kwiksep excellulose plastic desalting columns. The excluded volumes containing RSA or argatroban-C6-RSA were then subjected to BCA microprotein estimation and lyophilization. In addition, these samples were analyzed by LC/MS, sandwich ELISA assays (described above) to measure thrombin binding and immunoblotting.
Platelets were purified from freshly drawn human blood diluted with the anticoagulant buffer ACD (9 mls of blood to 1 mL of buffer). The blood was centrifuged for 25 min at 200×g. The platelet-rich plasma (PRP) was recovered with a plastic pipette. The PRP was centrifuged for 15 min at 3,000×g in v-shaped plastic tubes. The supernatant, called platelet-poor plasma (PPP), was then removed and saved, and the platelets were resuspended in buffer A1 (35 mM citric acid, 103 mM NaCl, 5 mM each of glucose and KCl, 2 mM CaCl2, 1 mM […], 3.5 mg/mL BSA, 0.1 μM PGE1 and 0.3 U/mL of apyrase at pH 6.5). The resuspended platelets were washed 2 times with buffer A1. After the last wash, the platelets were resuspended in buffer B1 (137 mM NaCl, 2.6 mM KCL 12 mM NaHCO3, 0.3 mM NaH2 PO4, 3 mM CaCl2, 1 mM MgCl2, 5 mM glucose, 3.5 mg/mL BSA and […] apyrase at pH 7.4) at a density of 3×10^5 /μL. The platelets were maintained at room temperature until ready for use.
Various parameters relevant to platelet aggregation were obtained on a four channel aggregometer manufactured by AFFI BIO. In brief, the reaction chambers are warmed to 37° C. and are agitated at a rate of 1,200 rpm. Light is passed through the reaction chambers, with 300 μL of buffer B1 used to set the 100% transmittance level for each chamber. From a series of standardization experiments, it was determined that 0.5 U/mL of human thrombin (Sigma) is an optimal aggregating concentration of thrombin and is used to set. the 0% transmittance for the instrument. Standard conditions for the assay involve incubating 250 μL of the platelet suspension with or without 50 μL of inhibitor diluted in buffer in the reaction chambers for 60 seconds at 37° C. The value of transmittance is now set as 0%. After this measurement, thrombin is added to the reaction chambers (20 μl) and transmittance is measured for the next 6 minutes. Samples were performed in triplicate.

Substance: RSA-argatroban-C6 conjugate: rabbit serum albumin covalently bound by argatroban-C6 NHS ester molecules
- IC50 (estimated concentration which inhibits 50% of the aggregation) (0.5 U/mL human thrombin, 37° C., conjugate: average of 10 argatrobans/RSA used): 4.5 to 7.5 µM
- delay in thrombin-induced platelet aggregation (FIG. 11, versus sham-treated RSA): clearly delayed platelet aggregation
